Assay results as given in patent US20220184172A1, “AMPK/CASPASE-6 AXIS CONTROLS LIVER DAMAGE IN NONALCOHOLIC STEATOHEPATITIS” (The Regents of the University of California, priority 2019, published 2022).

What was measured:
[1] = test system: procaspase-6 cleavage in HepG2 cells; assay: Procaspase-6 cleavage induced by TNFα and CHX in HepG2 cells (IB); assay type: cell-based; details: 40 μM pretreatment 1 hr, then 30 μg/ml CHX and 50 ng/ml TNFα 2 hrs
Protocol: FIGS. 15A-15F. AMPK phosphorylates caspase-6 and inhibits its cleavage. FIG. 15A. Caspase-6 activity was measure in the lysates from isolated primary hepatocytes treated with vehicle or 250 μM BSA-conjugated palmitic acid (PA) or 50 ng/ml TNFα for 2 hrs. Data are shown as mean±SD. *, P<0.05, Student's unpaired t test. FIG. 15B. HepG2 cells were pretreated with 40 μM A-769662 for 1 hr, and then treated with 30 μg/ml cycloheximide (CHX) and 50 ng/ml TNFα for 2 hrs. Cell lysates were subject to immunoblot (IB) analysis. FIG. 15C. In vitro kinase assay using purified caspase-6-mycexpressed in HEK293T cells, and recombinant AMPKα1β1γ1 active kinase. FIGS. 15D-15E. Flox and LAKO mice were fed with CD-HFD for 8 weeks. After 6 weeks of CD-HFD feeding, mice were intraperitoneally injected with 25 mg/kg A-769662 or vehicle daily for 2 weeks along with continuous CD-HFD feeding. FIG. 15D. […] Quantification of IB analysis in FIG. 15D. n=3. *, P<0.05, two-way ANOVA. […] Quantification of IB analysis in FIG. 5K. n=3. […]
Western blot was performed as previously described(11). […] Supernatants were collected and analyzed with BCA (Thermo Scientific) to quantify protein content. […] Individual proteins were detected with specific antibodies and visualized on film using horseradish peroxidase-conjugated secondary antibodies (Fisher Scientific) and SuperSignal West Pico PLUS Chemilunminescent Substrate (Thermo Scientific).

[2] = test system: caspase-6 activity in primary hepatocytes; assay: Caspase-6 activity induced by palmitic acid in primary hepatocytes; assay type: cell-based, mice; details: 40 μM pretreatment 1 hr, then 250 μM BSA-conjugated palmitic acid 2 hrs
Protocol: FIGS. 5A-5K. AMPK phosphorylates caspase-6 to inhibit its cleavage and activation. FIG. 5A. Primary hepatocytes were pretreated 40 μM A-769662 for 1 hr, then treated 30 μg/ml CHX and 50 ng/ml TNFα for 2 hrs. IB analysis of cell lysates. n=3. Mean±SD. *, P<0.05, two-way ANOVA. FIG. 5B. Primary hepatocytes were pretreated 40 μM A-769662 for 1 hr, then treated 250 μM BSA-conjugated palmitic acid (PA) for 2 hrs. Cell lysates were subject to caspase-6 activity assay. Mean±SD. *, P<0.05. FIG. 5C. Caspase-6 Ser^257 locates within AMPK substrate motif. FIG. 5C. discloses SEQ ID NOS 57-63, respectively, in order of appearance. FIG. 5D. In vitro kinase assay using recombinant caspase-6, and recombinant AMPKα1β1γ1 or AMPKα2β1γ1 active kinase. FIG. 5E. Alignment of caspase-6 sequence. FIG. 5E. discloses SEQ ID NOS 64-67, respectively, in order of appearance. FIG. 5F. HEK293T cells overexpressing caspase-6-myc WT, S^257A, S^257D or S^257E mutant were treated with 10 μg/ml CHX and 25 ng/ml TNFα for 2 hrs. IB analysis of cell lysates. FIGS. 5G-5J. […] Quantification of aCasp6 staining per field in FIG. 5I. n=7. […]
Cell/tissue was homogenized with lysis buffer. Caspase-6 activity was determined with Caspase-6 Colorimetric Assay Kit (Biovision, Cat. K115), according to manufacturer's instruction. […]

- induction of caspase-6 activity by PA [2]: inhibited
SMILES: N#Cc1c(O)c2c(-c3ccc(-c4ccccc4O)cc3)csc2[nH]c1=O [A-769662]
- procaspase-6 cleavage [1]: significantly inhibited
